Reference: article PMC9454457 (Journal of Nuclear Medicine, 2022)
Read-outs that look alike come from different tables or passages of the source.

Key:
[1] = In vitro metabolic stability in human plasma; format: in vitro ADME; settings: 37°C, 72 ± 2 h, n = 4
Method: Metabolic stability in vitro was determined through a procedure published by Linder et al. that was slightly modified ([16]). Immediately after labeling, 200 μL of human plasma were added and the mixture was incubated at 37°C for 72 ± 2 h. Proteins were precipitated by treatment with ice-cold EtOH (150 μL) and ice-cold MeCN (450 μL), followed by centrifugation (13,000 rpm, 20 min). The supernatants were decanted and further centrifuged (13,000 rpm, 10 min) using a Costar Spin-X (Corning) centrifuge tube filter (0.45 μm). The filtrated plasma samples were analyzed using radio–RP-HPLC.
(§1) FIGURE 2. Preclinical data of ^nat/177Lu-RM2 (red), ^nat/177Lu-NeoBOMB1 (gray), ^nat/177Lu-AMTG (green), and ^nat/177Lu-AMTG2 (blue). (A) Affinity data on PC-3 and T-47D cells (1.5 × 10^5 cells/mL/well) using 3-^125I-D-Tyr^6-MJ9 (0.2 nM/well) as radiolabeled reference (2 h, room temperature, Hanks’ balanced salt solution plus 1% bovine serum albumin [v/v]). (B) GRPR-mediated internalization (0.25 pmol/well) on PC-3 cells as percentage of applied activity (incubation at 37°C for 1 h, Dulbecco modified Eagle medium/F-12 plus 5% bovine serum albumin [v/v], 1.5 × 10^5 cells/mL/well). Data were corrected for nonspecific binding (10^−3 M ^natLu-RM2). (C) Lipophilicity at pH 7.4 (logD7.4). (D) Metabolic stability in vitro in human plasma (left) (37°C, 72 ± 2 h; n = 4), and metabolic stability in vivo in murine plasma (middle) and murine urine (right) at 30 min after injection (n = 3). Data are expressed as mean ± SD.

[2] = In vivo metabolic stability in murine plasma and urine; design: species or system CB17-SCID mice; settings: 30 min after injection, n = 3
Method: Approximately 30–40 MBq (1 nmol, 150 μL) of the ^177Lu-labeled compounds were injected into the tail vein of anesthetized CB17-SCID mice (n = 3). After euthanasia at 30 min after injection, blood and urine samples were collected. Blood proteins were precipitated by treatment with ice-cold MeCN (v/v = 1/1), followed by centrifugation (13,000 rpm, 20 min). The supernatants were decanted and further centrifuged (13,000 rpm, 10 min) using a Costar Spin-X centrifuge tube filter (0.45 μm). The filtrated plasma samples and the urine samples were analyzed using radio–RP-HPLC.
as §1

[3] = Lipophilicity, n-octanol-PBS distribution coefficient (logD7.4); format: physicochemical; settings: n-octanol/PBS pH 7.4
Method: Approximately 1 MBq of the ^177Lu-labeled compound was dissolved in 1 mL of phosphate-buffered saline (pH 7.4) and n-octanol (v/v = 1/1). After stirring for 3 min at room temperature in a vortex mixer and subsequent centrifugation at 9,000 rpm for 5 min (Biofuge 15; Heraeus Sepatech GmbH), 200-μL aliquots of both layers were measured separately in a γ-counter. The experiment was repeated at least 5 times.

[4] = 30 min after injection; cited from earlier work
[5] = Biodistribution in PC-3 tumor-bearing CB17-SCID mice; format: in vivo
Method: A detailed description of tumor inoculation is provided in the supplemental materials. Approximately 2–5 MBq (100 pmol, 150 μL) of the ^177Lu-labeled GRPR ligands were injected into the tail vein of anesthetized (2% isoflurane) PC-3 tumor–bearing mice (biodistribution, n = 4; imaging, n = 1).
For biodistribution studies, organs were removed, weighed, and measured in a γ-counter (Perkin Elmer) after euthanasia at 24 h after injection.
For all competition studies, 3.62 mg/kg (40 nmol) of ^natLu-RM2 (10^−3 M in phosphate-buffered saline) were coadministered.

[6] = molecular target: T1, GRPR (Homo sapiens, UniProt P30550); test: Competitive binding (IC50) on PC-3 cells vs 3-125I-D-Tyr6-MJ9; settings: 2 h, room temperature, 3-125I-D-Tyr6-MJ9 0.2 nM/well, n = 3
T1 construct: endogenous in cells; host or cells: PC-3 cells
Method: Competitive binding studies were performed on both PC-3 and T-47D cells (1.5 × 10^5 cells in 1 mL/well) via incubation at room temperature for 2 h using 3-^125I-D-Tyr^6-MJ9 (0.2 nM/well) as a radiolabeled reference (n = 3). Internalization studies of the ^177Lu-labeled conjugates (1.0 nM/well) were performed on PC-3 cells (1.5 × 10^5 cells in 1 mL/well) at 37°C for 1 h (n = 6). Data were corrected for nonspecific binding (competition by 10^−3 M ^natLu-RM2).
as §1

[7] = molecular target: T1, GRPR; design: method as in PMID 19671861, PMID 17262215; settings: 1 h in vitro; cited from earlier work

T1 sequence (P30550 whole entry): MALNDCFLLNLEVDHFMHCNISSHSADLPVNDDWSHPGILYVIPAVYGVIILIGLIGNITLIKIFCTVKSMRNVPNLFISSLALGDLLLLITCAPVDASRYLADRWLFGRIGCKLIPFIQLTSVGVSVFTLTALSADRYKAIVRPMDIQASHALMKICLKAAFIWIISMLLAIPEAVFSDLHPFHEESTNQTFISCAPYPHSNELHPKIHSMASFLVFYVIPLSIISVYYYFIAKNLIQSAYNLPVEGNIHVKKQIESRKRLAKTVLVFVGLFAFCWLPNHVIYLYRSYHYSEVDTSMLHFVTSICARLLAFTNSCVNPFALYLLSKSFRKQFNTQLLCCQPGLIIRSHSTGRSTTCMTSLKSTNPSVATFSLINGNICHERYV

In the case of `CC(C)CC(CC(C)C)NC(=O)[C@H](Cc1cnc[nH]1)NC(=O)CNC(=O)[C@@H](NC(=O)[C@H](C)NC(=O)[C@H](Cc1c[nH]c2ccccc12)NC(=O)[C@H](CCC(N)=O)NC(=O)[C@@H](Cc1ccccc1)NC(=O)COCC(=O)Nc1ccc(CNC(=O)CN2CCN(CC(=O)O)CCN(CC(=O)O)CCN(CC(=O)O)CC2)cc1)C(C)C` [^177Lu-NeoBOMB1, metal not drawn, reference compound], the “Intact compound in human plasma in vitro” value [1] is reported as 61.9% ± 2.1%, the “Intact tracer in murine plasma in vivo” value [2] is reported as 75.9% ± 0.6% and the “Intact tracer in murine urine in vivo” value [2] is reported as 3.9% ± 1.3%. For the same molecule, the logD [3] was -0.57 ± 0.03, the “Fraction of intact tracer in murine blood” value [4] was 90% and the tissue uptake at 24 h ([5]; CB17-SCID, mouse, blood, intravenous, total radioactivity; 24 h after injection, 100 pmol, n = 4; read-out: Biodistribution, Blood) was 0.057 ± 0.027 %ID/g. The tissue uptake at 24 h ([5]; CB17-SCID, mouse, heart, intravenous, total radioactivity; 24 h after injection, 100 pmol, n = 4; read-out: Biodistribution, Heart) was 0.1 ± 0.03 %ID/g, the tissue uptake at 24 h ([5]; CB17-SCID, mouse, intestine, intravenous, total radioactivity; 24 h after injection, 100 pmol, n = 4; read-out: Biodistribution, Intestine) was 0.85 ± 0.05 %ID/g and the tissue uptake at 24 h ([5]; CB17-SCID, mouse, kidney, intravenous, total radioactivity; 24 h after injection, 100 pmol, n = 4; read-out: Biodistribution, Kidney) was 1.9 ± 0.72 %ID/g. The tissue uptake at 24 h ([5]; CB17-SCID, mouse, liver, intravenous, total radioactivity; 24 h after injection, 100 pmol, n = 4; read-out: Biodistribution, Liver) was 1.6 ± 0.62 %ID/g, the tissue uptake at 24 h ([5]; CB17-SCID, mouse, lung, intravenous, total radioactivity; 24 h after injection, 100 pmol, n = 4; read-out: Biodistribution, Lung) was 0.43 %ID/g and the tissue uptake at 24 h ([5]; CB17-SCID, mouse, muscle, intravenous, total radioactivity; 24 h after injection, 100 pmol, n = 4; read-out: Biodistribution, Muscle) was 0.01 ± 0.005 %ID/g. The tissue uptake at 24 h ([5]; CB17-SCID, mouse, pancreas, intravenous, total radioactivity; 24 h after injection, 100 pmol, n = 4; read-out: Biodistribution, Pancreas) was 8.48 ± 0.92 %ID/g, the tissue uptake at 24 h ([5]; CB17-SCID, mouse, spleen, intravenous, total radioactivity; 24 h after injection, 100 pmol, n = 4; read-out: Biodistribution, Spleen) was 1.94 ± 0.97 %ID/g and the tissue uptake at 24 h ([5]; CB17-SCID, mouse, stomach, intravenous, total radioactivity; 24 h after injection, 100 pmol, n = 4; read-out: Biodistribution, Stomach) was 1.29 ± 0.12 %ID/g. It also gave a tissue uptake at 24 h ([5]; CB17-SCID, mouse, tumor (PC-3), intravenous, total radioactivity; PC-3 tumor, 24 h after injection, 100 pmol, n = 4; read-out: Biodistribution, Tumor) of 7.23 ± 0.91 %ID/g.

With `CC(C)C[C@H](NC(=O)C[C@H](O)[C@H](CC(C)C)NC(=O)[C@H](Cc1c[nH]cn1)NC(=O)CNC(=O)[C@@H](NC(=O)[C@H](C)NC(=O)[C@H](Cc1c[nH]c2ccccc12)NC(=O)[C@H](CCC(N)=O)NC(=O)[C@@H](Cc1ccccc1)NC(=O)CN1CCC(NC(=O)CN2CCN(CC(=O)O)CCN(CC(=O)O)CCN(CC(=O)O)CC2)CC1)C(C)C)C(N)=O` [^177Lu-RM2, metal not drawn, reference compound] the “Intact compound in human plasma in vitro” value [1] was 38.7% ± 9.3%, the “Intact tracer in murine plasma in vivo” value [2] was 11.4% ± 3.7% and the “Intact tracer in murine urine in vivo” value [2] was 0.5% ± 0.1%. The tissue uptake at 24 h ([5]; CB17-SCID, mouse, adrenal, intravenous, 100 pmol, total radioactivity, 24 h after injection, 100 pmol, n = 4; read-out: Biodistribution, Adrenal) was 0.8 ± 0.16 %ID/g, the tissue uptake at 24 h ([5]; CB17-SCID, mouse, blood, intravenous, 100 pmol, total radioactivity, 24 h after injection, 100 pmol, n = 4; read-out: Biodistribution, Blood) was 0.012 ± 0.001 %ID/g and the tissue uptake at 24 h ([5]; CB17-SCID, mouse, bone, intravenous, 100 pmol, total radioactivity, 24 h after injection, 100 pmol, n = 4; read-out: Biodistribution, Bone) was 1.31 ± 0.56 %ID/g. It also gave a tissue uptake at 24 h ([5]; CB17-SCID, mouse, kidney, intravenous, 100 pmol, total radioactivity, 24 h after injection, 100 pmol, n = 4; read-out: Biodistribution, Kidney) of 1.79 ± 0.05 %ID/g, a tissue uptake at 24 h ([5]; CB17-SCID, mouse, liver, intravenous, 100 pmol, total radioactivity, 24 h after injection, 100 pmol, n = 4; read-out: Biodistribution, Liver) of 0.45 ± 0.03 %ID/g and a tissue uptake at 24 h ([5]; CB17-SCID, mouse, muscle, intravenous, 100 pmol, total radioactivity, 24 h after injection, 100 pmol, n = 4; read-out: Biodistribution, Muscle) of 0.011 ± 0.011 %ID/g. For the same molecule, the tissue uptake at 24 h ([5]; CB17-SCID, mouse, pancreas, intravenous, 100 pmol, total radioactivity, 24 h after injection, 100 pmol, n = 4; read-out: Biodistribution, Pancreas) was 0.43 ± 0.06 %ID/g and the tissue uptake at 24 h ([5]; CB17-SCID, mouse, tumor (PC-3), intravenous, 100 pmol, total radioactivity, PC-3 tumor, 24 h after injection, 100 pmol, n = 4; read-out: Biodistribution, Tumor) was 8.45 ± 0.19 %ID/g.

Molecule `CC(C)C[C@H](NC(=O)C[C@H](O)[C@H](CC(C)C)NC(=O)[C@H](Cc1c[nH]cn1)NC(=O)CNC(=O)[C@@H](NC(=O)[C@H](C)NC(=O)[C@H](Cc1c[nH]c2ccccc12)NC(=O)[C@H](CCC(N)=O)NC(=O)[C@@H](Cc1ccc(O)c(I)c1)NC(=O)CN1CCC(N)CC1)C(C)C)C(N)=O` [cold counterpart of 3-^125I-D-Tyr^6-MJ9] has an IC50 [6] of 1.3 ± 0.4 nM.

In the case of “DOTA-4-aminobenzoyl-Gln^7- Trp^8-Ala^9- Val^10- Gly^11- His^12- Leu^13-Met^14-NH2 [AMBA]”, the Internalization rates [7] is listed as “more than 25%”.
